Experimental data: US8349310B2, “Attractant compositions and method for attracting biting insects” (Bedoukian Research, Inc., priority 2007, dated 2013)

Key:
mosquitoes [1] = experiment: Field trap catch, Hock Model 1012 traps: CO2 plus 1,5Z-octadien-3-ol vs CO2 alone (Example 1); assay type: in vivo
Source text: (§1) Although, as stated above, this invention may be employed with any suitable trap or system, the invention has been tested and employed in a trap or system as described hereinafter. Mosquito traps Model 1012 manufactured by John W. Hock Company in Gainesville, Fla. were used in these tests. The traps use a stream of CO2 directed in the vicinity of a collection bag, with a fan used to blow mosquitoes into the bag. The light supplied to the trap was turned off. The traps were spaced 65-70 feet apart at the edge of a wetland in Danbury, Conn., at least 25 feet from any buildings. The 1,5-octadien-3-ol component was incorporated into a wax lure of the type manufactured by BioSensory, Inc. and placed near a stream of CO2 which was being released at a rate of approximately 150 ml/minute. The traps were operated from approximately 4:00 PM until 9:00 AM the next day. Daytime temperatures were approximately 70-75° F. during the trials.
To establish a baseline control the Hock traps with just CO2, and no added 1,5-octadien-3-ol component, were operated in the two areas on three days. The trap in area 1 (Trap A) caught 32 of the mosquitoes caught, and the trap in area 2 (Trap B) caught 23 of the mosquitoes caught. […]

mosquitoes [2] = experiment: Field trap catch, Hock traps: r-1-octen-3-ol with or without r-1,5Z-octadien-3-ol (Example 2); assay type: in vivo; details: for mosquitoes caught: Traps A and B, twelve day test period, attractant in 2 ml diethyl phthalate, 0.04 g r-1,5Z-octadien-3-ol tested together with 0.2 g r-1-octen-3-ol, r-1-octen-3-ol alone at 2 g
Source text: as §1
This test was conducted over a twelve-day period. The test was conducted to determine if 1,5-octadien-3-ol increases the trap catch of mosquitoes when added to a trap already containing the known attractant r-1-octen-3-ol. Traps A in area 1 and B in area 2, as described in Example 1, were employed. Both traps A and B were tested with (1) 0.2 g 100% r-1-octen-3-ol+0.04 g r-1,5Z-octadien-3-ol. in 2 ml diethyl phthalate, and (2) with 2 g 100% r-1-octen-3-ol in 2 ml diethyl phthalate (i.e., with no 1,5Z-octadien-3-ol present). Over the twelve day test period the traps with the 1,5z-octadien-3-ol present caught 239 mosquitoes and the traps without the 1,5Z-octadien-3-ol present caught 221 mosquitoes. Thus, the presence of the 1,5Z-octadien-3-ol increased the catch of mosquitoes by 8%.

Culex quinquefasciatus = details: electrophysiology test, reported in a published article; cited from earlier work

In the case of `C=CC(O)C/C=C\CC` (stereo not drawn) [1,5Z-octadien-3-ol], the mosquitoes caught (mosquitoes [1]; Trap A (area 1), compound in trap plus 150 ml/minute CO2, four day test period, Trap B with CO2 only caught 35) is reported as 84 mosquitoes and the “catch ratio Trap A to Trap B” value (mosquitoes [1]; Trap A with compound plus CO2 vs Trap B with CO2 only, four days, baseline catch ratio 1.4 with CO2 only in both traps) is reported as 2.4.
Work on `C=C[C@H](O)CCCCC` [r-1-octen-3-ol, reference compound] yielded a mosquitoes caught (mosquitoes [2]) of 221 mosquitoes.
For `C=CC(O)CC=CCC` (stereo not drawn) [1,5-octadien-3-ol], the “ability to attract mosquitoes” value (Culex quinquefasciatus) is given as “confirmed”.
For `C=C[C@H](O)C/C=C\CC` [r-1,5Z-octadien-3-ol], the mosquitoes caught (mosquitoes [2]) was 239 mosquitoes and the “increase of the catch of mosquitoes” value (mosquitoes [2]; r-1-octen-3-ol plus r-1,5Z-octadien-3-ol vs r-1-octen-3-ol alone, twelve days) was 8%.
